# From patent publication US10123861B2, “Bag for packaging diluted animal semen suitable for artificial insemination, in particular of porcine species; and system comprising same” (IMV TECHNOLOGIES, priority 2014, dated 2018)
# Assay: Amount of triclosan released from the bag into the dilution extender (LC-MS-MS)
# Format: physicochemical
# Details: bag of Example 3; for Amount of triclosan released into the dose / Proportion of triclosan released into the dose: five days, 17° C.; for Amount of triclosan released into the dose: full dose 70 ml; for Proportion of triclosan released into the dose: relative to approximately 532 μg in parts facing the pouch
# Text: A description will now be given of the trials with the bag of Example 3 to determine the amount of triclosan released into the dose of diluted semen such as 27 contained in the pouch such as 14 of that bag.
# To simplify the trials, it was not a dose of diluted semen which was preserved in the bag but only dilution extender.
# In this case, the dilution extender 53 (hereinafter “extender A”) and a conventional dilution extender containing an antibiotic (hereinafter “extender B”) were used.
# One bag of Example 3 is filled with a dose of extender A and one bag of Example 3 with a dose of extender B.
# Next the bags are left to rest for five days in the usual preservation conditions, that is to say 17° C. in horizontal position.
# Next, the extender contained in each bag is analyzed, in order to determine the concentration of triclosan.
# This analysis is made by liquid chromatography tandem mass spectrometry (LC-MS-MS method).
# Based on the concentrations obtained, the amount of triclosan released is determined in a full dose provided to be contained in the bag, that is to say 70 ml.
# It will be noted that the weight of triclosan taken into account in the sheets such as 11 and 12 of the bag of Example 3 for calculating the proportion released is not the weight of triclosan in the entirety of these sheets, but only in the parts facing the pouch such as 14. Here, these parts weigh approximately 1.835 g (determined after cutting out and weighing). As there are 29 mg of triclosan for 100 g of sheet. The amount of triclosan contained in these parts is approximately 532 μg.
# [1] = Extender A (without antibiotic)
# [2] = Extender B (containing an antibiotic)
smiles,measurement,setting,value
Oc1cc(Cl)ccc1Oc1ccc(Cl)cc1Cl [triclosan],Amount of triclosan released into the dose,[1],2.7 µg
same,Proportion of triclosan released into the dose,[1],0.5%
same,Amount of triclosan released into the dose,[2],1.9 µg
same,Proportion of triclosan released into the dose,[2],0.35%
same,amounts released into the dilution extenders,comment on the release results,around 1%
